The source of these data is patent US8404680B2, “N-[3-(5-amino-3,3a,7,7a-tetrahydro-1H-2,4-dioxa-6-aza-inden-7-yl)-phenyl]-amides as BACE1 and/or BACE2 inhibitors” (Hoffmann-La Roche Inc., priority 2011, dated 2013).

T1 sequence (P56817 46-501): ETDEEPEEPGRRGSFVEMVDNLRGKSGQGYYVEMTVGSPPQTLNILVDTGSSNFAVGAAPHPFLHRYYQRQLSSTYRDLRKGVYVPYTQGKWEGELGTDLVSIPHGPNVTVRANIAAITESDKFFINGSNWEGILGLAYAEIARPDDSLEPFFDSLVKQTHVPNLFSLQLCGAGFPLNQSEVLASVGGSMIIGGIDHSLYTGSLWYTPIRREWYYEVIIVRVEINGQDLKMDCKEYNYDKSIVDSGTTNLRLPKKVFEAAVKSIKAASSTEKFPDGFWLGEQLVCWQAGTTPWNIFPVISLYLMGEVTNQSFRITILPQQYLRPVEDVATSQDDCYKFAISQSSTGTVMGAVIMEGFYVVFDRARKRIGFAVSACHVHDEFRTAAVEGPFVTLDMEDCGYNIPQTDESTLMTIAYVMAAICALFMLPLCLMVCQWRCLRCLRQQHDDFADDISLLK

One assay has as its target T1, BACE1 (Homo sapiens, UniProt P56817).
T1 construct: Human HEK293 cells which are stably transfected with a vector expressing a cDNA of the human APP wt gene (APP695); endogenous in cells; host or cells: HEK293 (human), stably transfected with human APP695 wt
Nature of the assay: Cellular Aβ-lowering assay. The format is cell-based. The conditions noted are these: human HEK293 cells stably expressing human APP wt (APP695); Aβ40 in supernatant by ELISA after 18-20 hrs. The procedure:
Cellular Aβ-Lowering Assay:
Human HEK293 cells which are stably transfected with a vector expressing a cDNA of the human APP wt gene (APP695) were used to assess the potency of the compounds in a cellular assay. The cells were seeded in 96-well microtiter plates in cell culture medium (Iscove, plus 10% (v/v) fetal bovine serum, glutamine, penicillin/streptomycin) to about 80% confluence and the compounds were added at a 10× concentration in 1/10 volume of medium without FCS containing 8% DMSO (final concentration of DMSO was kept at 0.8% v/v). After 18-20 hrs incubation at 37° C. and 5% CO2 in a humidified incubator the culture supernatant was harvested for the determination of Aβ40 concentrations. 96well ELISA plates (e.g., Nunc MaxiSorb) were coated with monoclonal antibody which specifically recognize the C-terminal end of Aβ40 (Brockhaus et al., NeuroReport 9, 1481-1486; 1998). After blocking of non-specific binding sites with e.g. 1% BSA and washing, the culture supernatants were added in suitable dilutions together with a horseradish peroxidase-coupled Aβ detection antibody (e.g., antibody 4G8, Senetek, Md. Heights, Mo.) and incubated for 5 to 7 hrs. Subsequently the wells of the microtiter plate were washed extensively with Tris-buffered saline containing 0.05% Tween 20 and the assay was developed with tetramethylbenzidine/H2O2 in citric acid buffer. After stopping the reaction with one volume 1 NH2SO4 the reaction was measured in an ELISA reader at 450 nm wavelength. The concentrations of Aβ in the culture supernatants were calculated from a standard curve obtained with known amounts of pure Aβ peptide.
(ELISA stands for enzyme-linked immunosorbent assay.)
`C[C@]1(c2cc(NC(=O)c3ccc(Cl)cn3)ccc2F)N=C(N)O[C@]2(C(F)(F)F)COC[C@H]12` (racemic) [Example 21, N-(3-((4SR,4aSR,7aSR)-2-amino-4-methyl-7a-(trifluoromethyl)-4a,5,7,7a-tetrahydro-4H-furo[3,4-e][1,3]oxazin-4-yl)-4-fluorophenyl)-5-chloropicolinamide] displayed an IC50 of 34 nM.

In turn, `C[C@]1(c2cc(NC(=O)c3ccc(C#N)cn3)ccc2F)N=C(N)O[C@]2(C(F)(F)F)COC[C@H]12` (racemic) [Example 22, N-(3-((4SR,4aSR,7aSR)-2-amino-4-methyl-7a-(trifluoromethyl)-4a,5,7,7a-tetrahydro-4H-furo[3,4-e][1,3]oxazin-4-yl)-4-fluorophenyl)-5-cyanopicolinamide] had an IC50 of 7 nM.

`C[C@]1(c2cc(NC(=O)c3ccc(C#N)cn3)ccc2F)N=C(N)O[C@]2(C(F)(F)F)COC[C@H]12` (relative stereo) [Example 19, N-(3-(rel-(4SR,4aSR,7aSR)-2-amino-4-methyl-7a-(trifluoromethyl)-4a,5,7,7a-tetrahydro-4H-furo[3,4-e][1,3]oxazin-4-yl)-4-fluorophenyl)-5-cyanopicolinamide] displayed a half-inhibitory concentration (IC50) of 9 nM.

Take `CC#CCOc1cnc(C(=O)Nc2ccc(F)c([C@@]3(C)N=C(N)O[C@]4(C(F)(F)F)COC[C@H]34)c2)cn1` (relative stereo) [Example 20, N-(3-(rel-(4SR,4aSR,7aSR)-2-amino-4-methyl-7a-(trifluoromethyl)-4a,5,7,7a-tetrahydro-4H-furo[3,4-e][1,3]oxazin-4-yl)-4-fluorophenyl)-5-(but-2-ynyloxy)pyrazine-2-carboxamide]: the IC50 was found to be 7 nM.

In turn, `C[C@]1(c2cc(NC(=O)c3ccc(Cl)cn3)ccc2F)N=C(N)O[C@@H]2COC[C@@H]21` [Example 1, 5-Chloro-pyridine-2-carboxylic acid [3-((3aS,7S,7aS)-5-amino-7-methyl-3,3a,7,7a-tetrahydro-1H-2,4-dioxa-6-aza-inden-7-yl)-4-fluoro-phenyl]-amide] showed an IC50 of 0.7 nM.

`C[C@]1(c2cc(NC(=O)c3ncc(Cl)cc3Cl)ccc2F)N=C(N)O[C@@H]2COC[C@@H]21` [Example 2, 3,5-Dichloro-pyridine-2-carboxylic acid [3-((3aS,7S,7aS)-5-amino-7-methyl-3,3a,7,7a-tetrahydro-1H-2,4-dioxa-6-aza-inden-7-yl)-4-fluoro-phenyl]-amide] came in with an IC50 of 0.8 nM.

`C[C@]1(c2cc(NC(=O)c3ccc(F)cn3)ccc2F)N=C(N)O[C@@H]2COC[C@@H]21` [Example 3, 5-Fluoro-pyridine-2-carboxylic acid [3-((3aS,7S,7aS)-5-amino-7-methyl-3,3a,7,7a-tetrahydro-4H-2,4-dioxa-6-aza-inden-7-yl)-4-fluoro-phenyl]-amide]: it took 2.5 nM to reach half-maximal inhibition (IC50).

Compound `C[C@]1(c2cc(NC(=O)c3ccc(OCC4CC4)cn3)ccc2F)N=C(N)O[C@@H]2COC[C@@H]21` [Example 9, 5-Cyclopropylmethoxy-pyridine-2-carboxylic acid [3-((3aS,7S,7aS)-5-amino-7-methyl-3,3a,7,7a-tetrahydro-1H-2,4-dioxa-6-aza-inden-7-yl)-4-fluoro-phenyl]-amide] registered a 50% inhibitory concentration (IC50) of 5 nM.

With `CC#CCOc1ccc(C(=O)Nc2ccc(F)c([C@@]3(C)N=C(N)O[C@@H]4COC[C@@H]43)c2)nc1` [Example 10, 5-But-2-ynyloxy-pyridine-2-carboxylic acid [3-((3aS,7S,7aS)-5-amino-7-methyl-3,3a,7,7a-tetrahydro-1H-2,4-dioxa-6-aza-inden-7-yl)-4-fluoro-phenyl]-amide], the IC50 was determined as 0.1 nM.

Compound `C[C@]1(c2cc(NC(=O)c3ccc(OCC(F)(F)C(F)F)cn3)ccc2F)N=C(N)O[C@@H]2COC[C@@H]21` [Example 11, 5-(2,2,3,3-Tetrafluoro-propoxy)-pyridine-2-carboxylic acid [3-((3aS,7S,7aS)-5-amino-7-methyl-3,3a,7,7a-tetrahydro-1H-2,4-dioxa-6-aza-inden-7-yl)-4-fluoro-phenyl]-amide] showed an IC50 of 5 nM.

In turn, `C[C@]1(c2cc(NC(=O)c3ncc(C#N)cc3Cl)ccc2F)N=C(N)O[C@@H]2COC[C@@H]21` [Example 12, N-(3-((4S,4aS,7aS)-2-amino-4-methyl-4a,5,7,7a-tetrahydro-4H-furo[3,4-e][1,3]oxazin-4-yl)-4-fluorophenyl)-3-chloro-5-cyanopicolinamide] gave an IC50 of 1 nM.

Compound `N#Cc1ccc(C(=O)Nc2ccc(F)c([C@@]3(CF)N=C(N)O[C@@H]4COC[C@@H]43)c2)nc1` [Example 13, 5-Cyano-pyridine-2-carboxylic acid [3-((3aS,7S,7aS)-5-amino-7-fluoromethyl-3,3a,7,7a-tetrahydro-1H-2,4-dioxa-6-aza-inden-7-yl)-4-fluoro-phenyl]-amide] gave an IC50 of 1 nM.

With `NC1=N[C@](CF)(c2cc(NC(=O)c3ccc(Cl)cn3)ccc2F)[C@H]2COC[C@H]2O1` [Example 14, 5-Chloro-pyridine-2-carboxylic acid [3-((3aS,7S,7aS)-5-amino-7-fluoromethyl-3,3a,7,7a-tetrahydro-1H-2,4-dioxa-6-aza-inden-7-yl)-4-fluoro-phenyl]-amide], the IC50 was 1 nM.

In turn, `NC1=N[C@](CF)(c2cc(NC(=O)c3ccc(F)cn3)ccc2F)[C@H]2COC[C@H]2O1` [Example 15, 5-Fluoro-pyridine-2-carboxylic acid [3-((3aS,7S,7aS)-5-amino-7-fluoromethyl-3,3a,7,7a-tetrahydro-1H-2,4-dioxa-6-aza-inden-7-yl)-4-fluoro-phenyl]-amide] registered an IC50 of 2.5 nM.

`NC1=N[C@@](c2cc(NC(=O)c3ccc(Cl)cn3)ccc2F)(C(F)F)[C@H]2COC[C@H]2O1` [Example 16, 5-Chloro-pyridine-2-carboxylic acid [3-((3aS,7S,7aS)-5-amino-7-difluoromethyl-3,3a,7,7a-tetrahydro-1H-2,4-dioxa-6-aza-inden-7-yl)-4-fluoro-phenyl]-amide]: half-maximal inhibition (IC50) was put at 5.5 nM.

For another assay, the target named is T2, BACE2 (Rattus norvegicus, UniProt Q6IE75).
T2 construct: endogenous cellular BACE2 in the Ins1e rat cell line; endogenous in cells; host or cells: INS-TMEM27 (INS1e-derived rat cell line, TetOn-inducible full-length hTMEM27)
T2 sequence (Q6IE75 63-514): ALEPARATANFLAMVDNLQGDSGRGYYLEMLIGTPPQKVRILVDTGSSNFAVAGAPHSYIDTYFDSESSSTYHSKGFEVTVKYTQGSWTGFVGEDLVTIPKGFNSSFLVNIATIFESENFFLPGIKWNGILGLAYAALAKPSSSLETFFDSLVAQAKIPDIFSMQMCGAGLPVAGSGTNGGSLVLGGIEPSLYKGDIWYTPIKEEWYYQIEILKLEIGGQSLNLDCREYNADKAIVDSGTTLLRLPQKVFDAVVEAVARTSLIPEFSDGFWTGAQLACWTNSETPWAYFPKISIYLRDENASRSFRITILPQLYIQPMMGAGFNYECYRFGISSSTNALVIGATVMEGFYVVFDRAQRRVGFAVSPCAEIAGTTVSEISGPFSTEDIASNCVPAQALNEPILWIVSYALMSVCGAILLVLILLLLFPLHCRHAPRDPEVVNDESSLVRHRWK
In words: Assay for BACE inhibition by measuring cellular TMEM27 cleavage. The format is cell-based. The conditions noted are these: INS-TMEM27 (INS1e-derived rat cell line, inducible hTMEM27); shed TMEM27 in medium by ELISA. The text has this: Assay for BACE Inhibition by Measuring Cellular TMEM27 Cleavage:
The assay uses the principle of inhibition of human TMEM27 cleavage by endogenous cellular BACE2 in the Ins1e rat cell line and shedding from the cell surface into the culture medium, followed by detection in an ELISA assay Inhibition of BACE2 prevents the cleavage and shedding in a dose-dependent manner.
The stable cell line “INS-TMEM27” represents an INS1e-derived cell line with inducible expression (using the TetOn system) of full-length hTMEM27 in a doxycycline-dependent manner. The cells are cultured throughout the experiment in RPMI1640+ Glutamax (Invitrogen) Penicillin/Streptomycin, 10% Fetal bovine serum, […], […], 100 micrograms/ml G418 and 100 microgram/ml hygromycin and are grown inadherent culture at 37° C. in a standard CO2 cell culture incubator.
INS-TMEM27 cells are seeded in 96-well plates. After 2 days in culture, BACE2 inhibitor is added in a range of concentrations as required by the assay and after a further two hours, doxycycline is added to a final concentration of 500 ng/ml. The cells are incubated for a further 46 hours and the supernatant harvested for detection of shed TMEM27.
An ELISA assay (using a pair of mouse anti-human-TMEM27 antibodies, raised against the extracellular domain of TMEM27) is used for detection of TMEM27 in the culture medium. An EC50 for BACE2 inhibition is calculated using the ELISA readout for each inhibitor concentration with standard curve-fitting software such as XLFit for the Excel spreadsheet program.
`C[C@]1(c2cc(NC(=O)c3ccc(Cl)cn3)ccc2F)N=C(N)O[C@@H]2COC[C@@H]21` [Example 1, 5-Chloro-pyridine-2-carboxylic acid [3-((3aS,7S,7aS)-5-amino-7-methyl-3,3a,7,7a-tetrahydro-1H-2,4-dioxa-6-aza-inden-7-yl)-4-fluoro-phenyl]-amide] displayed an IC50 of 36 nM.

Take `C[C@]1(c2cc(NC(=O)c3ncc(Cl)cc3Cl)ccc2F)N=C(N)O[C@@H]2COC[C@@H]21` [Example 2, 3,5-Dichloro-pyridine-2-carboxylic acid [3-((3aS,7S,7aS)-5-amino-7-methyl-3,3a,7,7a-tetrahydro-1H-2,4-dioxa-6-aza-inden-7-yl)-4-fluoro-phenyl]-amide]: inhibition was half-maximal at 14 nM (IC50).

Take `C[C@]1(c2cc(NC(=O)c3ccc(F)cn3)ccc2F)N=C(N)O[C@@H]2COC[C@@H]21` [Example 3, 5-Fluoro-pyridine-2-carboxylic acid [3-((3aS,7S,7aS)-5-amino-7-methyl-3,3a,7,7a-tetrahydro-4H-2,4-dioxa-6-aza-inden-7-yl)-4-fluoro-phenyl]-amide]: the IC50 came out at 18 nM.

Compound `C[C@]1(c2cc(NC(=O)c3ccc(C#N)cn3)ccc2F)N=C(N)O[C@@H]2COC[C@@H]21` [Example 4, 5-Cyano-pyridine-2-carboxylic acid [3-((3aS,7S,7aS)-5-amino-7-methyl-3,3a,7,7a-tetrahydro-4H-2,4-dioxa-6-aza-inden-7-yl)-4-fluoro-phenyl]-amide] returned an IC50 of 17 nM.

`CC#CCOc1cnc(C(=O)Nc2ccc(F)c([C@@]3(C)N=C(N)O[C@@H]4COC[C@@H]43)c2)cn1` [Example 7, 5-But-2-ynyloxy-pyrazine-2-carboxylic acid [3-((3aS,7S,7aS)-5-amino-7-methyl-3,3a,7,7a-tetrahydro-4H-2,4-dioxa-6-aza-inden-7-yl)-4-fluoro-phenyl]-amide]: inhibition was half-maximal at 47 nM (IC50).

The term IC50 denotes the concentration at which inhibition is half-maximal.
